Data: PubChem BioAssay (NCI)
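Interpolation was linear, between the two tested concentrations surrounding the appropriate level; five concentrations were tested over 48 hours in 96-well plates. The concentration for full growth arrest is given as TGI.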

Experiments:
Assay in all cases: NCI anticancer screen, dose series, 48 h
KM20L2 colon = system: KM20L2 colon
OVCAR-8 ovarian = system: OVCAR-8 ovarian
OVCAR-4 ovarian = system: OVCAR-4 ovarian
SR leukemia = system: SR leukemia
HCT-15 colon = system: HCT-15 colon
IGROV1 ovarian = system: IGROV1 ovarian
M14 melanoma = system: M14 melanoma
NCI-H460 lung = system: NCI-H460 lung
RPMI-8226 leukemia = system: RPMI-8226 leukemia
SNB-19 CNS = system: SNB-19 CNS
COLO 205 colon = system: COLO 205 colon
786-0 renal = system: 786-0 renal
SK-MEL-5 melanoma = system: SK-MEL-5 melanoma
HT29 colon = system: HT29 colon
HL-60(TB) leukemia = system: HL-60(TB) leukemia
M19-MEL melanoma = system: M19-MEL melanoma
DMS 114 small cell lung = system: DMS 114 small cell lung
LOX IMVI melanoma = system: LOX IMVI melanoma
MOLT-4 leukemia = system: MOLT-4 leukemia
SNB-75 CNS = system: SNB-75 CNS
HOP-62 NSCLC = system: HOP-62 NSCLC
A498 renal = system: A498 renal
A549 NSCLC = system: A549 NSCLC
CCRF-CEM leukemia = system: CCRF-CEM leukemia
SF-295 CNS = system: SF-295 CNS
K-562 leukemia = system: K-562 leukemia
DMS 273 small cell lung = system: DMS 273 small cell lung
SF-268 CNS = system: SF-268 CNS
LXFL 529 NSCLC = system: LXFL 529 NSCLC
SW-620 colon = system: SW-620 colon
SN12C renal = system: SN12C renal
UACC-62 melanoma = system: UACC-62 melanoma
NCI-H23 lung = system: NCI-H23 lung
UACC-257 melanoma = system: UACC-257 melanoma
MALME-3M melanoma = system: MALME-3M melanoma
RXF 393 renal = system: RXF 393 renal
SF-539 CNS = system: SF-539 CNS
HCC-2998 colon = system: HCC-2998 colon
UO-31 renal = system: UO-31 renal
SK-MEL-28 melanoma = system: SK-MEL-28 melanoma
XF 498 CNS = system: XF 498 CNS
SK-MEL-2 melanoma = system: SK-MEL-2 melanoma
NCI-H226 lung = system: NCI-H226 lung
HCT-116 colon = system: HCT-116 colon
TK-10 renal = system: TK-10 renal
ACHN renal = system: ACHN renal
U251 CNS = system: U251 CNS
RXF-631 renal = system: RXF-631 renal
OVCAR-3 ovarian = system: OVCAR-3 ovarian
SNB-78 CNS = system: SNB-78 CNS
OVCAR-5 ovarian = system: OVCAR-5 ovarian
DLD-1 colon = system: DLD-1 colon
NCI-H522 lung = system: NCI-H522 lung
EKVX NSCLC = system: EKVX NSCLC
HOP-92 NSCLC = system: HOP-92 NSCLC
KM12 colon = system: KM12 colon
CAKI-1 renal = system: CAKI-1 renal
SK-OV-3 ovarian = system: SK-OV-3 ovarian
HOP-18 NSCLC = system: HOP-18 NSCLC
DU-145 prostate = system: DU-145 prostate
MCF7 breast = system: MCF7 breast
MDA-N = system: MDA-N
MDA-MB-231 breast = system: MDA-MB-231 breast
T-47D breast = system: T-47D breast
HS 578T breast = system: HS 578T breast
PC-3 prostate = system: PC-3 prostate
MDA-MB-435 = system: MDA-MB-435
BT-549 breast = system: BT-549 breast

Measured: TGI

CCN1C(C)=NC2C(=O)c3ccccc3C(=O)C21 (stereo unspecified)
68.2 µM: KM20L2 colon
79.3 µM: HCC-2998 colon
68 µM: SK-MEL-5 melanoma
62.7 µM: OVCAR-4 ovarian
not listed: SNB-78 CNS | OVCAR-5 ovarian | DLD-1 colon | NCI-H522 lung | EKVX NSCLC | HOP-92 NSCLC | KM12 colon | CAKI-1 renal | SK-OV-3 ovarian | HOP-18 NSCLC | DU-145 prostate | MCF7 breast | MDA-N | MDA-MB-231 breast | T-47D breast | HS 578T breast | PC-3 prostate | MDA-MB-435 | BT-549 breast
> 100 µM: all other assays above

CC1(C)CC23C(=O)N(c4ccccc4)C(=Nc4ccccc4)NC2=CC(C#N)=C(C#N)C3O1 (stereo unspecified)
89.9 µM: HL-60(TB) leukemia
52.2 µM: HOP-92 NSCLC
88.8 µM: NCI-H226 lung
95.5 µM: SK-MEL-5 melanoma
not listed: SR leukemia | DMS 273 small cell lung | SK-OV-3 ovarian | HOP-18 NSCLC | DU-145 prostate | MCF7 breast | MDA-N | MDA-MB-231 breast | T-47D breast | HS 578T breast | PC-3 prostate | MDA-MB-435 | BT-549 breast
> 100 µM: all other assays above

C[C@]12CCC[C@H](OC=O)C1(O)C[C@H](C(=O)O)CC2 (stereo partly specified)
32.5 µM: UACC-62 melanoma
35.2 µM: KM20L2 colon
40.2 µM: EKVX NSCLC
not listed: DU-145 prostate | MCF7 breast | MDA-N | MDA-MB-231 breast | T-47D breast | HS 578T breast | PC-3 prostate | MDA-MB-435 | BT-549 breast
> 100 µM: all other assays above

CSc1ccc(-c2cn3ccsc3n2)c(O)c1
> 55.8 µM: HCT-15 colon
> 62.7 µM: COLO 205 colon
88.3 µM: SR leukemia
> 57.3 µM: SF-539 CNS
43.3 µM: 786-0 renal
> 60.2 µM: K-562 leukemia
> 55.1 µM: SW-620 colon
> 82.2 µM: LXFL 529 NSCLC
98.7 µM: OVCAR-4 ovarian
> 63.1 µM: HL-60(TB) leukemia
> 94.7 µM: SNB-75 CNS
> 67.3 µM: HCT-116 colon
> 65 µM: RPMI-8226 leukemia
> 56.5 µM: LOX IMVI melanoma
> 87.4 µM: NCI-H460 lung
> 60.9 µM: DMS 114 small cell lung | CCRF-CEM leukemia
not listed: M19-MEL melanoma | RXF 393 renal | DU-145 prostate | MCF7 breast | MDA-N | MDA-MB-231 breast | T-47D breast | HS 578T breast | PC-3 prostate | MDA-MB-435 | BT-549 breast
> 100 µM: all other assays above

N=c1nc(N)c2cc3c(N)nc(=N)c3cc12
10.7 µM: SK-MEL-28 melanoma
75.3 µM: EKVX NSCLC
23.5 µM: SN12C renal | UACC-62 melanoma
42.6 µM: SNB-75 CNS
51 µM: SF-295 CNS | BT-549 breast
44.7 µM: NCI-H226 lung
18 µM: MALME-3M melanoma
34.4 µM: HCT-116 colon
72.5 µM: SK-OV-3 ovarian
23.9 µM: RPMI-8226 leukemia
9.57 µM: K-562 leukemia
6.78 µM: HL-60(TB) leukemia
56.6 µM: 786-0 renal
46.4 µM: NCI-H522 lung
28.1 µM: UACC-257 melanoma
43.5 µM: U251 CNS
41.6 µM: CAKI-1 renal
> 61 µM: MOLT-4 leukemia
44 µM: SW-620 colon
48.5 µM: SNB-78 CNS
> 90.6 µM: A498 renal
35 µM: OVCAR-8 ovarian
57.2 µM: TK-10 renal
25.6 µM: HOP-92 NSCLC
51.2 µM: OVCAR-4 ovarian
8.09 µM: MDA-MB-231 breast
25.3 µM: RXF 393 renal
13.1 µM: SF-268 CNS
4.71 µM: MDA-N
38.5 µM: HOP-62 NSCLC
31.5 µM: SF-539 CNS
27.9 µM: M14 melanoma
75.2 µM: OVCAR-3 ovarian
56.5 µM: SR leukemia
23.8 µM: DMS 114 small cell lung
41.5 µM: HOP-18 NSCLC
> 52.2 µM: LOX IMVI melanoma
47.8 µM: T-47D breast
> 46.5 µM: SK-MEL-2 melanoma
73.9 µM: OVCAR-5 ovarian
53.5 µM: RXF-631 renal
34.5 µM: UO-31 renal
5.45 µM: M19-MEL melanoma
26.8 µM: CCRF-CEM leukemia
not listed: XF 498 CNS
> 100 µM: all other assays above

CCCCCCCCCOC(=S)NC
38.5 µM: SF-268 CNS
53.9 µM: M19-MEL melanoma | UACC-62 melanoma
48.4 µM: RPMI-8226 leukemia
44.9 µM: OVCAR-8 ovarian
67.5 µM: SF-295 CNS
32.5 µM: KM20L2 colon | SF-539 CNS
43.1 µM: CAKI-1 renal
31.2 µM: NCI-H522 lung
54.6 µM: TK-10 renal
65.1 µM: A549 NSCLC
57 µM: KM12 colon
73.7 µM: SNB-75 CNS
34.8 µM: LXFL 529 NSCLC
34.6 µM: NCI-H23 lung
31.5 µM: U251 CNS
42.2 µM: OVCAR-4 ovarian | HT29 colon
48.8 µM: A498 renal
51.6 µM: EKVX NSCLC
58.5 µM: SK-MEL-28 melanoma
40.9 µM: SW-620 colon
43.8 µM: MALME-3M melanoma
46.5 µM: MOLT-4 leukemia
35.5 µM: LOX IMVI melanoma
37.6 µM: ACHN renal
34.9 µM: DLD-1 colon
49.2 µM: COLO 205 colon
36.9 µM: SN12C renal
33.5 µM: 786-0 renal
49.5 µM: RXF-631 renal
63.7 µM: IGROV1 ovarian
36.1 µM: HCT-15 colon | OVCAR-3 ovarian
45.7 µM: SK-OV-3 ovarian
51.1 µM: K-562 leukemia
41 µM: SK-MEL-2 melanoma
23.2 µM: UO-31 renal
39.6 µM: SK-MEL-5 melanoma
38.1 µM: OVCAR-5 ovarian
42.5 µM: HOP-92 NSCLC
33.6 µM: DMS 273 small cell lung
35.3 µM: HCC-2998 colon | XF 498 CNS
45.8 µM: M14 melanoma
36.3 µM: NCI-H460 lung
47.7 µM: CCRF-CEM leukemia
> 100 µM: SNB-19 CNS
34.1 µM: HL-60(TB) leukemia
44.2 µM: HOP-18 NSCLC

CCCC(OCC)(OCC)OCC
not listed: SW-620 colon | DU-145 prostate | MCF7 breast | MDA-N | MDA-MB-231 breast | T-47D breast | HS 578T breast | PC-3 prostate | MDA-MB-435 | BT-549 breast
> 100 µM: all other assays above
